Source: patent US12568972B2, “Pyridazinol compounds and derivatives, preparation methods, herbicidal compositions and applications thereof” (Qingdao Kingagroot Chemical Compound Co., Ltd., priority 2018, dated 2026)

How the values were obtained:
Test in all cases: Post-emergence test, weed control effect
Format in all cases: in vivo
Conditions in all cases: after 3 weeks
[1] = system: Rorippa indica
Procedure, shortened: (§1)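 Seeds are sown in soil pots and raised in the greenhouse until the 2-3 leaf stage. Plants are then sprayed with compound dissolved in acetone with Tween-80, diluted in water and supplemented with 80% vegetable oil methyl ester synergist at 1500 g/ha, and fresh weight inhibition is rated 0-10 three weeks later.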

[2] = system: Amaranthus retroflexus
Procedure, shortened: as §1

[3] = system: Veronica polita
Procedure, shortened: as §1

[4] = system: Chenopodiaceae
Procedure, shortened: as §1

O=C(Cc1ccccc1)Oc1cc(C(F)(F)F)nnc1-c1ccc(F)c(F)c1 [Compound 1-94]
10: weed control effect, Rorippa indica (activity level) ([1]; Dose 3000 g/ha) | weed control effect, Amaranthus retroflexus (activity level) ([2]; Dose 3000 g/ha) | weed control effect, Veronica polita (activity level) ([3]; Dose 3000 g/ha) | weed control effect, Chenopodiaceae (activity level) ([4]; Dose 3000 g/ha)

CCOC(=O)CCCOc1cc(C(F)(F)F)nnc1-c1ccc(F)cc1 [Compound 1-207]
10: weed control effect, Rorippa indica (activity level) ([1]; Dose 3000 g/ha) | weed control effect, Amaranthus retroflexus (activity level) ([2]; Dose 3000 g/ha) | weed control effect, Veronica polita (activity level) ([3]; Dose 3000 g/ha) | weed control effect, Chenopodiaceae (activity level) ([4]; Dose 3000 g/ha)

Oc1cc(C(F)(F)F)nnc1-c1cncc(Cl)c1 [Compound 770]
10: weed control effect (activity level), Rorippa indica ([1]; Dose 3000 g/ha) | weed control effect (activity level), Amaranthus retroflexus ([2]; Dose 3000 g/ha) | weed control effect (activity level), Veronica polita ([3]; Dose 3000 g/ha) | weed control effect (activity level), Chenopodiaceae ([4]; Dose 3000 g/ha)

N#Cc1ccc(-c2nnc(C(F)(F)F)cc2O)cn1 [Compound 983]
10: weed control effect (activity level), Rorippa indica ([1]; Dose 3000 g/ha) | weed control effect (activity level), Amaranthus retroflexus ([2]; Dose 3000 g/ha) | weed control effect (activity level), Veronica polita ([3]; Dose 3000 g/ha) | weed control effect (activity level), Chenopodiaceae ([4]; Dose 3000 g/ha)

CC(C)CC(CC(C)C)=NOc1cc(C(F)(F)F)nnc1-c1ccc(Cl)cc1 [Compound 1-180]
10: weed control effect, Rorippa indica (activity level) ([1]; Dose 3000 g/ha) | weed control effect, Amaranthus retroflexus (activity level) ([2]; Dose 3000 g/ha) | weed control effect, Veronica polita (activity level) ([3]; Dose 3000 g/ha) | weed control effect, Chenopodiaceae (activity level) ([4]; Dose 3000 g/ha)

O=[N+]([O-])c1ccc(F)c(-c2nnc(C(F)(F)F)cc2O)c1 [Compound 61]
10: weed control effect (activity level), Rorippa indica ([1]; dose 1000 g/ha) | weed control effect (activity level), Amaranthus retroflexus ([2]; dose 1000 g/ha) | weed control effect (activity level), Veronica polita ([3]; dose 1000 g/ha) | weed control effect (activity level), Chenopodiaceae ([4]; dose 1000 g/ha)

Oc1cc(C(F)(F)F)nnc1-c1cc(OC(F)F)c(Cl)cc1Cl [Compound 165]
10: weed control effect (activity level), Rorippa indica ([1]; dose 2000 g/ha) | weed control effect (activity level), Amaranthus retroflexus ([2]; dose 2000 g/ha) | weed control effect (activity level), Veronica polita ([3]; dose 2000 g/ha) | weed control effect (activity level), Chenopodiaceae ([4]; dose 2000 g/ha)

Cc1cc(-c2nnc(C(F)(F)F)cc2O)nn1C [Compound 540]
10: weed control effect (activity level), Rorippa indica ([1]; Dose 3000 g/ha) | weed control effect (activity level), Amaranthus retroflexus ([2]; Dose 3000 g/ha) | weed control effect (activity level), Veronica polita ([3]; Dose 3000 g/ha) | weed control effect (activity level), Chenopodiaceae ([4]; Dose 3000 g/ha)

Oc1cc(C(F)(F)F)nnc1-c1c(F)cc(F)cc1F [Compound 52]
10: weed control effect (activity level), Rorippa indica ([1]; dose 1000 g/ha) | weed control effect (activity level), Amaranthus retroflexus ([2]; dose 1000 g/ha) | weed control effect (activity level), Veronica polita ([3]; dose 1000 g/ha) | weed control effect (activity level), Chenopodiaceae ([4]; dose 1000 g/ha)

CC(C)(C)C(=O)Oc1cc(C(F)(F)F)nnc1-c1ccc(C(F)(F)F)nc1 [Compound 1-9]
10: weed control effect, Rorippa indica (activity level) ([1]; Dose 3000 g/ha) | weed control effect, Amaranthus retroflexus (activity level) ([2]; Dose 3000 g/ha) | weed control effect, Veronica polita (activity level) ([3]; Dose 3000 g/ha) | weed control effect, Chenopodiaceae (activity level) ([4]; Dose 3000 g/ha)

Oc1cc(C(F)(F)F)nnc1-c1ccc(F)nc1Cl [Compound 1003]
10: weed control effect (activity level), Rorippa indica ([1]; Dose 3000 g/ha) | weed control effect (activity level), Amaranthus retroflexus ([2]; Dose 3000 g/ha) | weed control effect (activity level), Veronica polita ([3]; Dose 3000 g/ha) | weed control effect (activity level), Chenopodiaceae ([4]; Dose 3000 g/ha)

O=S(=O)(Cc1ccccc1)Oc1cc(C(F)(F)F)nnc1-c1ccc(F)cc1 [Compound 1-143]
10: weed control effect, Rorippa indica (activity level) ([1]; Dose 3000 g/ha) | weed control effect, Amaranthus retroflexus (activity level) ([2]; Dose 3000 g/ha) | weed control effect, Veronica polita (activity level) ([3]; Dose 3000 g/ha) | weed control effect, Chenopodiaceae (activity level) ([4]; Dose 3000 g/ha)

Oc1cc(C(F)(F)F)nnc1-c1ccc2ncccc2c1 [Compound 714]
10: weed control effect (activity level), Rorippa indica ([1]; Dose 3000 g/ha) | weed control effect (activity level), Amaranthus retroflexus ([2]; Dose 3000 g/ha) | weed control effect (activity level), Veronica polita ([3]; Dose 3000 g/ha) | weed control effect (activity level), Chenopodiaceae ([4]; Dose 3000 g/ha)

CCCCCCCSC(=O)Oc1cc(C(F)(F)F)nnc1-c1ccc(Cl)c(Cl)c1 [Compound 1-53]
10: weed control effect, Rorippa indica (activity level) ([1]; Dose 3000 g/ha) | weed control effect, Amaranthus retroflexus (activity level) ([2]; Dose 3000 g/ha) | weed control effect, Veronica polita (activity level) ([3]; Dose 3000 g/ha) | weed control effect, Chenopodiaceae (activity level) ([4]; Dose 3000 g/ha)

Oc1cc(C(F)(F)F)nnc1-c1cccnc1C(F)(F)F [Compound 976]
10: weed control effect (activity level), Rorippa indica ([1]; Dose 3000 g/ha) | weed control effect (activity level), Amaranthus retroflexus ([2]; Dose 3000 g/ha) | weed control effect (activity level), Veronica polita ([3]; Dose 3000 g/ha) | weed control effect (activity level), Chenopodiaceae ([4]; Dose 3000 g/ha)

CCc1cccc(-c2nnc(C(F)(F)F)cc2OS(=O)(=O)CS(C)(=O)=O)c1 [Compound 1-123]
10: weed control effect, Rorippa indica (activity level) ([1]; Dose 3000 g/ha) | weed control effect, Amaranthus retroflexus (activity level) ([2]; Dose 3000 g/ha) | weed control effect, Veronica polita (activity level) ([3]; Dose 3000 g/ha) | weed control effect, Chenopodiaceae (activity level) ([4]; Dose 3000 g/ha)

CCCCCC/C(C)=N\Oc1cc(C(F)(F)F)nnc1-c1ccc(Cl)cc1Cl [Compound 1-176]
10: weed control effect, Rorippa indica (activity level) ([1]; Dose 3000 g/ha) | weed control effect, Amaranthus retroflexus (activity level) ([2]; Dose 3000 g/ha) | weed control effect, Veronica polita (activity level) ([3]; Dose 3000 g/ha) | weed control effect, Chenopodiaceae (activity level) ([4]; Dose 3000 g/ha)

Cc1[nH]nc(-c2nnc(C(F)(F)F)cc2O)c1C [Compound 544]
10: weed control effect (activity level), Rorippa indica ([1]; Dose 3000 g/ha) | weed control effect (activity level), Amaranthus retroflexus ([2]; Dose 3000 g/ha) | weed control effect (activity level), Veronica polita ([3]; Dose 3000 g/ha) | weed control effect (activity level), Chenopodiaceae ([4]; Dose 3000 g/ha)
